Assay in all cases: NCI-60 cell line screen, 48 h
For test [1], the system named is NCI-H460 lung.
Test [2] concerns RPMI-8226 leukemia.
Test [3] deals with HT29 colon.
Test [4] concerns MDA-MB-231 breast.
The test system of test [5] is T-47D breast.
In test [6] the test system is MDA-MB-435.
The test system of test [7] is SK-MEL-5 melanoma.
The test system of test [8] is NCI-H226 lung.
Test [9] concerns HCT-15 colon.
Test [10] has as its system HOP-62 NSCLC.

Each structure is given as a SMILES string.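 Assay format: 96-well plates, 48-hour exposure. GI50 is the concentration that inhibits growth by half. TGI: concentration producing complete growth inhibition.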

For the compound `CC(=N\O)/C(C)=N/O.CC(=N\O)/C(C)=N/O.CC(=N\O)/C(C)=N/O.CC(=N\O)/C(C)=N/O.[Cu].[Cu]`, the GI50 is 20.4 µM in test [1]; 27.1 µM in test [2]; 17.7 µM in test [3]; 20.3 µM in [4]; 18.4 µM in [5]; 18.5 µM in test [6]. For the same compound, the GI50 in test [7] is 17.8 µM; in test [8], 23.5 µM; in [9], 20.6 µM; in test [10] it was 24.7 µM. The TGI in test [1] worked out at 38.5 µM; in [2] it was 63.7 µM; in test [3], 35.4 µM; in test [4], 35.6 µM; in test [5] it was 33.7 µM; in [6], 33.7 µM. Further, the TGI in [7] was found to be 32.2 µM; in test [8], 39.2 µM; in [9], 42.1 µM; in test [10], 64.8 µM.

With `ON(CCc1ccncc1)Cc1ccccc1`, the TGI in test [2], in test [3], in test [5], in [6], in [7] and in [8] was above 100 µM throughout. Moreover, the TGI in test [9] and in [10] was above 100 µM in each case.

With `C[C@]12CC/C(=N\N)C[C@@H]1CC[C@@H]1[C@@H]2CC[C@]2(C)/C(=N/N)CC[C@@H]12`, the GI50 in test [1], in test [2], in test [3], in [4], in test [5] and in test [6] was above 100 µM throughout. Also, the GI50 in test [7], in [9] and in [10] was above 100 µM in each case. For the same compound, the TGI in [1], in test [2], in test [3], in [4], in test [5] and in [6] was above 100 µM each time. For the same compound, the TGI in test [7], in [9] and in test [10] was above 100 µM each time.

Regarding `COc1cc(C(=O)/C=C/c2c(-c3ccc(F)cc3)nc3sc(C)cn23)cc(OC)c1OC`, the GI50 is 3.87 µM in [1]; 2.32 µM in [2]; 6.96 µM in [3]; 5.38 µM in test [4]; 2.93 µM in test [5]; 1.75 µM in test [6]. The GI50 in test [7] is 0.516 µM; in test [8], 9.58 µM; in test [9], 3.75 µM; in [10], 85.1 µM. Besides, the TGI is above 100 µM in test [1]; above 100 µM in [2]; above 100 µM in test [3]; above 100 µM in test [4]; above 100 µM in test [5]; 6.92 µM in [6]. For the same compound, the TGI in [7] was 1.98 µM; in test [8], above 100 µM; in [9] it was above 100 µM; in [10] it was above 100 µM.

`COc1ccc(-c2nsc3c2NC(=O)CC3c2ccc3c(c2)OCO3)cc1` (stereo unspecified): the GI50 in test [1] was 0.498 µM; in [2], 2.51 µM; in [3], 0.414 µM; in test [4] it was 1.13 µM; in test [5] it was 0.724 µM; in test [6] it was 0.219 µM. Also, the GI50 in test [7] was 1.46 µM; in test [8], 7.28 µM; in test [9], 0.493 µM; in [10], 1.92 µM. In addition, the TGI in test [1] was above 100 µM; in test [2], above 100 µM; in [3], 11.3 µM; in [4], 11.6 µM; in [5], above 100 µM; in test [6] it was 0.539 µM. Also, the TGI is 42.2 µM in test [7], above 100 µM in test [8], above 100 µM in test [9] and above 100 µM in test [10].

Regarding `O=S1(=O)N(Cc2ccccc2)[C@@H](Cc2ccccc2)C2O[C@H]2[C@H](Cc2ccccc2)N1Cc1ccccc1` (stereo partly specified), the GI50 was 2.53 µM in [1]; 4.92 µM in test [2]; above 7.5 µM in test [3]; above 7.5 µM in test [4]; 6.81 µM in test [5]; above 7.5 µM in [6]. The GI50 in test [7] was 1.79 µM; in test [8], above 7.5 µM; in [9] it was 3.92 µM; in test [10] it was above 7.5 µM. The TGI in [1], in [2], in [3], in test [4], in test [5] and in [6] was above 7.5 µM in each case. For the same compound, the TGI in test [7], in [8], in test [9] and in [10] was above 7.5 µM each time.

In the case of `CC1=C(SCc2ccccc2)C(=O)c2ccccc2C1=O`, the TGI was 51.6 µM in test [1]; 7.36 µM in [2]; 90.2 µM in test [3]; 41.3 µM in test [4]; above 100 µM in [5]; 27.9 µM in [6]. Also, the TGI in test [7] is 31 µM; in [9], 43.5 µM; in [10], 33.5 µM.

For the compound `O=Nc1c(-c2cccc([N+](=O)[O-])c2)nc2cnccn12`, the TGI in [1] was above 100 µM; in [3], 40.1 µM; in test [4], 26.7 µM; in test [5], 49.6 µM; in test [6], 43.1 µM; in [7] it was above 100 µM. The TGI was found to be 50.7 µM in test [8], 30.7 µM in [9] and 90.1 µM in [10].

As for `Cc1ccc2c[c]1[Hg][CH2]COS2(=O)=O`, the GI50 in [1] is above 100 µM; in test [3], 17.9 µM; in [4] it was 17.5 µM; in test [5], 15 µM; in test [6], 24.7 µM; in test [7], 16.7 µM. In addition, the figures for the GI50 in [8], in [9] and in [10] were 19.8 µM, 16.4 µM and 71.7 µM, respectively. In addition, the TGI is above 100 µM in test [1]; 31.8 µM in [3]; 32 µM in test [4]; 29.7 µM in test [5]; 39.4 µM in test [6]; 30.3 µM in test [7]. Besides, the TGI is 43.5 µM in test [8], 30 µM in [9] and above 100 µM in test [10].

As for `CCCCCCCCCCCCCC[P+](CCCCCC)(CCCCCC)CCCCCC`, the GI50 in test [1] was 0.315 µM; in test [2] it was 0.0158 µM; in [3], 0.0527 µM; in test [4], 0.0596 µM; in test [5] it was 0.0501 µM; in test [6], 0.0372 µM. In addition, the GI50 in [7] is 0.0829 µM; in test [9], 0.27 µM; in [10] it was 0.229 µM. Besides, the TGI was 1.22 µM in test [1]; 0.0395 µM in [2]; 3.26 µM in test [3]; 1.49 µM in [4]; 0.391 µM in [6]; 0.258 µM in test [7]. Also, in test [9], the TGI was above 100 µM.

Regarding `O=C1c2ccccc2-c2nccc3cc(Cl)nc1c23`, the GI50 in test [1] was 3 µM; in [2] it was 0.705 µM; in [4], 4.62 µM; in [5], 0.385 µM; in test [6], 1.41 µM; in test [7], 1.34 µM. In addition, the GI50 in [8] was 18.7 µM; in test [10] it was 2.89 µM. The TGI in test [1] was 12.2 µM; in [2] it was 3.35 µM; in test [4] it was above 73.4 µM; in test [5], 1.72 µM; in test [6], 2.84 µM; in test [7], 2.61 µM. For the same compound, the TGI in [8] is above 81.5 µM; in test [10], 18.6 µM.

Turning to `CCCCCCCCCCCCCCCC(=O)OCC1OC(n2cnc3c(=S)nc(N)[nH]c32)C(OC(=O)CCCCCCCCCCCCCCC)C1OC(=O)CCCCCCCCCCCCCCC` (stereo unspecified), the GI50 in test [1] was 2.8 µM; in test [3], 3.22 µM; in test [4], 2.66 µM; in test [5] it was 2 µM; in test [6], 3.68 µM; in test [7], above 47 µM. In addition, the GI50 in [8] was 8.59 µM; in [9] it was 6.17 µM; in test [10] it was 1.78 µM. The TGI in test [1] was above 22.6 µM; in test [3], above 50 µM; in test [4] it was above 22.1 µM; in test [5] it was above 50 µM; in test [6], above 50 µM; in test [7] it was above 50 µM. In addition, the TGI in [8] was above 50 µM; in test [9], above 50 µM; in test [10] it was above 35 µM.

For `CCOCC(=O)N[C@H]1CCc2cc(OC)c(OC)c(OC)c2-c2ccc(SC)c(=O)cc21`, the TGI in test [1] was 0.398 µM; in test [2] it was above 100 µM; in test [4], 2.31 µM; in test [5], above 100 µM; in test [6], below 0.01 µM; in [7] it was below 0.01 µM. The TGI in test [8] was 0.398 µM; in test [9], above 18.1 µM; in test [10], above 100 µM.

On to `COc1ccc(C(O)c2cc3c(N)c(C(=O)Nc4cccc(Cl)c4C)sc3nc2C)cc1` (stereo unspecified), for which the GI50 in test [1] was 0.834 µM; in test [2] it was 0.681 µM; in test [3], 0.768 µM; in test [4], 0.781 µM; in test [5] it was 0.953 µM; in test [6] it was 0.825 µM. The GI50 is 0.874 µM in test [7], 1.04 µM in test [8] and 0.623 µM in [9]. The TGI in [1] came to 1.73 µM; in [2], 1.85 µM; in [3] it was 1.72 µM; in [4], 1.57 µM; in test [5] it was 2.2 µM; in test [6], 1.56 µM. Also, the results for the TGI in test [7], in test [8] and in test [9] were 1.58 µM, 3.15 µM and 1.33 µM, respectively.

Regarding `CSc1ccc(-c2cc(-c3ccc(NC(=O)CCCN4CCCC4)cc3)nc(-c3ccc(NC(=O)CCCN4CCCC4)cc3)c2)cc1`, the GI50 in test [1] was 1.81 µM; in test [2], 2.16 µM; in test [3], 1.71 µM; in test [4] it was 1.85 µM; in [5], 6.52 µM; in test [6], 1.68 µM. For the same compound, the GI50 in test [7] is 2.74 µM; in test [8] it was 3.12 µM; in test [10], 1.7 µM. The TGI amounted to 3.28 µM in [1]; 4.56 µM in test [2]; 3.13 µM in [3]; 3.69 µM in test [4]; 21.7 µM in test [5]; 3.06 µM in [6]. Besides, the TGI in [7] worked out at 10.7 µM; in [8] it was 16.1 µM; in test [10], 3.5 µM.

`COc1ccc(Nc2ncccc2/C=C/C(=O)c2cc(OC)c(OC)c(OC)c2)cc1`: the GI50 was 2.01 µM in test [1]; 1.6 µM in test [3]; 1.94 µM in [4]; 1.67 µM in test [5]; 1.46 µM in test [6]; 1.39 µM in [7]. The values for the GI50 in [8], in test [9] and in test [10] were 1.37 µM, 1.66 µM and 1.78 µM, respectively. The TGI amounted to 4.25 µM in test [1]; 3.16 µM in test [3]; 5.74 µM in test [4]; 4.03 µM in test [5]; 3.36 µM in test [6]; 2.68 µM in [7]. For the same compound, the TGI was determined as 2.81 µM in [8], 5.06 µM in test [9] and 3.75 µM in [10].

Consider `c1cc(C2CCCCC2)ccc1OCCCCCCN1CCNCC1`, for which the GI50 in test [1] was 1.84 µM; in test [3] it was 1.45 µM; in [4], 1.61 µM; in test [5] it was 2.14 µM; in test [6], 1.64 µM; in [7], 1.78 µM. Further, the GI50 in [8] was 4.67 µM; in test [9] it was 1.64 µM. The TGI was 3.43 µM in test [1]; 2.98 µM in test [3]; 3.29 µM in [4]; 4.79 µM in [5]; 3.12 µM in test [6]; 3.26 µM in [7]. For the same compound, the TGI stood at 26.4 µM in test [8] and 3.25 µM in [9].

These data come from PubChem BioAssay (NCI).
